Data published in patent publication US10010585B2, “Methods of treating vestibular schwannoma and reducing hearing or neurite loss caused by vestibular schwannoma” (Massachusetts Eye and Ear Infirmary, priority 2014, dated 2018).

How the values were obtained:
[1] = test system: primary VS cells; experiment: BrdU proliferation assay in primary VS cultures; type: cell-based, human; conditions: for proliferation, of the NT cells / proliferation, of the non-treated cells: 48 hours
Description: Proliferation rate of 12 VS cultures was assessed and correlated with the tumor volume in the latest gadolinium enhanced T1-weighted MRI scan prior to surgical resection, and with tumor growth in vivo, measured as changes in the tumor's volume over time calculated from serial MRI scans. Tumor growth was standardized by dividing the growth rate by the initial tumor volume. Separate analyses were performed for solid tumors, which generally account for approximately 96% of VSs (Charabi et al., 1994), versus all studied tumors, which included 4 out of 13 total tumors with a visible cystic component, because cystic components could misrepresent true tumor volume (Charabi et al., 1994). To determine the level of cell proliferation in the cultures, Bromodeoxyuridine (BrdU) was added to the cells at a concentration of 10 μg/ml 20 hours before the cells were fixed. The cells were kept in the dark after the addition of BrdU Immunofluorescence protocol was followed as described under ‘Immunofluorescence,’ and cell and nuclear membranes were permeablized by incubation in 1% Triton-X for 10 minutes and by incubation in 2N Hydrochloric acid for 20 minutes, respectively, after fixation. Primary antibody against BrdU (AbD Serotec, NC, 1:200) and anti-rat IgG (Life Technologies, NY, 1:1000) were used. BrdU- and Hoechst-stained nuclei were counted in 3-5 fields and the ratio of BrdU positive to Hoechst positive nuclei was used to determine the proliferation rate in vitro. […]
(§1) Cultured human primary VS cells, primary SCs and HEI-193 cells were treated with NF-κB inhibitors BAY11-7082 (BAY11) or curcumin for 48 hours (Santa Cruz Biotechnology). BAY11 or curcumin, diluted in 100% DMSO, were mixed to the accurate concentrations in warmed media and applied to the cultures (with DMSO concentration in media being 1% maximum), alongside a no-treatment control receiving media alone with appropriate corresponding DMSO levels. Experiments were performed in media fortified with antibiotics and serum (same formulation as described in Example 1 for culturing cells).
(§2) After 48 hours of treatment, primary VS and Schwann cultures were fixed for BrdU staining, to visualize proliferation, or TUNEL staining, to visualize cell death. The same methodology as described in Example 1 was utilized. Cleaved caspase 3 staining, another apoptosis marker to reinforce findings using TUNEL, was conducted using an antibody against cleaved caspase 3 following the ‘immunofluorescence’ protocol outlined in Example 1.
(§3) The cultures were incubated with the drugs for 48 hours. To label proliferating cells, BrdU was added 20 hours before fixation. pH was measured in the media after drug addition to ensure no significant deviations.
(§4) After 48 hours of treatment with salicylates, primary VS and SC cultures were fixed for BrdU staining, to visualize proliferation, or TUNEL staining, to visualize cell death. The same methodology as described in Example 1 was utilized.
To understand cross-talk between HGF and VEGF-A pathway, cultured VS cells were incubated with Life Technologies silencer select siRNAs targeting VEGFA (s461) or MET (s8700). To understand whether HGF signaling contributed to VS proliferation, cultured VS cells were treated with MET inhibitor SU11274 (Sigma-Aldrich, MO, #S9820). Seventy-two hours after siRNA treatment or 12 hours after treatment with SU11274 (2 μM), cells were incubated with 10 μg/mL BrdU (Life Technologies, NY, # B23151) for 20 hours before fixation.

[2] = test system: primary VS cells; experiment: TUNEL cell death assay in primary VS cultures; type: cell-based, human; conditions: 48 hours
Description: Rate of apoptosis in 6 VS cultures was assessed and correlated with tumor growth in vivo and tumor volume. […] Apoptosis was measured using terminal deoxynucleotidyl transferase dUTP nick end labeling (TUNEL, Roche Applied Sciences, NY) following manufacturer's instructions. Briefly, immunofluorescence protocol was followed as described under ‘Immunofluorescence,’ until fixations, then the cells were washed with PBS thrice and incubated in 1% Triton-X for 10 minutes on shaker. The cells were washed with PBS once and incubated in TUNEL mix for 1 hour at 37° C., then for 30 minutes at RT on shaker. The cells were then incubated in rhodamine phalloidin (Life Technologies, NY, 1:40) and Hoechst stain for 20 minutes, washed with PBS thrice and mounted onto slides for imaging. TUNEL and Hoechst stained nuclei were counted in >3 fields and the ratio of TUNEL positive to Hoechst positive nuclei was used to determine apoptosis rate in vitro. A positive control of 10 minutes-DNAse (Roche Applied Sciences, NY) treatment prior to TUNEL labeling was utilized.
(§5) For siRNA treatment, cultured primary VS cells or HEI-193 cells were placed in antibiotic and serum free media overnight. The next day, the cells were incubated with Life Technologies siRNAs targeting NF-κB genes RELA and NF-κB1, with control cells being treated with vehicle only (Lipofectamine RNAiMax), for 5 days. Some cultures were also incubated with a fluorescent random Oligo (Life Technologies) along with vehicle to assess transfection efficiency. siRNA experiments were performed in antibiotic and serum free media.
BAY11 or curcumin, diluted in 100% DMSO, were mixed to the accurate concentrations in warmed media and applied to the cultures (with DMSO concentration in media being 1% maximum), alongside a no-treatment control receiving media alone with appropriate corresponding DMSO levels.
After 48 hours of treatment, primary VS and Schwann cultures were fixed for BrdU staining, to visualize proliferation, or TUNEL staining, to visualize cell death.
After 48 hours of treatment with salicylates, primary VS and SC cultures were fixed for BrdU staining, to visualize proliferation, or TUNEL staining, to visualize cell death.

[3] = test system: primary SCs; experiment: BrdU proliferation assay in primary Schwann cell cultures; type: cell-based, human; conditions: 48 hours
Description: (§6) Proliferation rate of 12 VS cultures was assessed and correlated with the tumor volume in the latest gadolinium enhanced T1-weighted MRI scan prior to surgical resection, and with tumor growth in vivo, measured as changes in the tumor's volume over time calculated from serial MRI scans. Tumor growth was standardized by dividing the growth rate by the initial tumor volume. Separate analyses were performed for solid tumors, which generally account for approximately 96% of VSs (Charabi et al., 1994), versus all studied tumors, which included 4 out of 13 total tumors with a visible cystic component, because cystic components could misrepresent true tumor volume (Charabi et al., 1994). To determine the level of cell proliferation in the cultures, Bromodeoxyuridine (BrdU) was added to the cells at a concentration of 10 μg/ml 20 hours before the cells were fixed. The cells were kept in the dark after the addition of BrdU Immunofluorescence protocol was followed as described under ‘Immunofluorescence,’ and cell and nuclear membranes were permeablized by incubation in 1% Triton-X for 10 minutes and by incubation in 2N Hydrochloric acid for 20 minutes, respectively, after fixation. Primary antibody against BrdU (AbD Serotec, NC, 1:200) and anti-rat IgG (Life Technologies, NY, 1:1000) were used. BrdU- and Hoechst-stained nuclei were counted in 3-5 fields and the ratio of BrdU positive to Hoechst positive nuclei was used to determine the proliferation rate in vitro.
as §1, §2, §3, §4

[4] = test system: primary SCs; experiment: TUNEL cell death assay in primary Schwann cell cultures; type: cell-based, human; conditions: 48 hours
Description: (§7) Rate of apoptosis in 6 VS cultures was assessed and correlated with tumor growth in vivo and tumor volume. Two out of the six VS had cystic components. Apoptosis was measured using terminal deoxynucleotidyl transferase dUTP nick end labeling (TUNEL, Roche Applied Sciences, NY) following manufacturer's instructions. Briefly, immunofluorescence protocol was followed as described under ‘Immunofluorescence,’ until fixations, then the cells were washed with PBS thrice and incubated in 1% Triton-X for 10 minutes on shaker. The cells were washed with PBS once and incubated in TUNEL mix for 1 hour at 37° C., then for 30 minutes at RT on shaker. The cells were then incubated in rhodamine phalloidin (Life Technologies, NY, 1:40) and Hoechst stain for 20 minutes, washed with PBS thrice and mounted onto slides for imaging. TUNEL and Hoechst stained nuclei were counted in >3 fields and the ratio of TUNEL positive to Hoechst positive nuclei was used to determine apoptosis rate in vitro. A positive control of 10 minutes-DNAse (Roche Applied Sciences, NY) treatment prior to TUNEL labeling was utilized.
as §1, §2

[5] = test system: HEI-193 NF2 VS cell line; experiment: BrdU proliferation assay in HEI-193 cells; type: cell-based, human; conditions: for normalized proliferation rate: 48 hours
Description: as §6
(§8) The same methodology as described in Example 1 was utilized for primary VS and SC cultures. Cultures were treated with NF-κB inhibitors approximately after 2 weeks of culturing. HEI-193 cell line was a gift from Dr. Giovannini at the House Ear Institute (Hung et al., 2002a).
as §5, §1, §2

[6] = test system: HEI-193 NF2 VS cell line; experiment: TUNEL cell death assay in HEI-193 cells; type: cell-based, human; conditions: 48 hours
Description: as §7, §8, §5, §1, §2

[7] = test system: cochlear explant cultures (hair cells and neurites); experiment: Murine cochlear explant culture, hair cell, neurite and fiber damage counts; type: cell-based, CBA/CaJ mice; conditions: 100 ng/mL FGF2 pre-application plus 1 mM gentamicin, 48 hours total
Source text: To develop an animal model to study hearing loss due to VS, cochlear explant cultures were established from postnatal CBA/CaJ mice aged P3-P5 (Jackson Laboratory, ME). Briefly, after decapitating the mouse, temporal bones were dissected from the skull in Hank's Balanced Salt Solution (Life Technologies, NY). The otic capsule encasing the cochlea was dissected out from each temporal bone. The otic capsule was carefully stripped away and the spiral ligament was peeled away from the entire cochlea, starting from the base. The basal turn of cochlea was then isolated using the dissecting knife (Fine Science Tools, CA), discarding the apical turn hook region. The tectorial membrane and the Reissner's membrane were removed, leaving the organ of Corti intact with the spiral ganglion neuron region. This explant was cultured onto a 10 mm glass coverslip coated with CellTak (BD Biosciences, CA, #354241) in a 35 mm culture dish with 4 wells. Cells were cultured in 98% DMEM, 1% ampicillin and 1% N2 supplement.
To assess FGF2's otoprotective effect, cochlear explant cultures were treated with recombinant human FGF2±gentamicin. After culturing the explants overnight, media fortified with FGF2 (100 ng/mL) was applied. Twenty-four hours later media fortified with gentamicin (1 mM) and FGF2 (100 ng/mL) was applied. […] Cochlear explants were fixed after an additional 24 hours of treatment, with total time being 48 hours.
After treatment, the explants were fixed and stained with antibodies against myosin 7A (Myo7A, Proteus Biosciences, CA) and β-tubulin (Tuj1, Covance, MA) to identify hair cells (HCs) and neurons, respectively. The same immunofluorescence protocol as described in Example 1 was used, with the exceptions of omission of […] HCl incubation, usage of 5% NHS with 1% Triton-X for blocking solution and 1% NHS with 0.4% Triton-X solution for primary antibody incubation at room temperature (RT). Secondary antibodies (Alexa Flour 555 anti-mouse and Alexa Four 488 anti-rabbit) were purchased from Life Technologies. Cochlear explants were imaged using a Leica TCS SP5 Confocal microscope. Zoomed-in pictures for the region of organ of Corti, including neurites, were merged in a z-stack to obtain a z-axis projection image in the Leica software. The number of hair cells (HCs) and neurites were manually counted per 100 μm length along the cochlea, with 1-2 samplings per specimen.
The same general methodology for murine cochlear explant cultures as described in Example 5 was utilized. Cochlear explant cultures were established from P2-P3 mice. Importantly, instead of only culturing the basal turn, the apical turn was also isolated, providing two pieces per cochlea with a greater frequency range. After approximately 12 hours, the cochlear explant cultures were treated for 48 hours with tumor secretions diluted to half their concentration. The formulation was 46.5% tumor-conditioned DMEM, 46.5% plain DMEM, 5% FBS, 1% ampicillin and 1% N2 supplement. Cochlear explants were treated with control media in parallel, being 46.5% DMEM incubated without tumor, 46.5% plain DMEM, 5% FBS, 1% ampicillin and 1% N2 supplement. All reagents were purchased from Life Technologies, NY. Osmolality in the solutions was measured in samples using a vapor-pressure osmometer (standardized with 290 mOsm/kg of 0.1567M sodium chloride solution) before applying them onto cochlear explants. Extra formulation for each VS secretion was made to be tested on Milliplex arrays and ELISA. Milliplex array, containing FGF2, VEGF-A and HGF beads (Millipore) and human TNFα ELISA (R&D Systems) were conducted as directed by the manufacturer on VS secretions prior to being applied onto the cochlear explant cultures.
Cochlear explants were fixed 48 hours after treatment and the same methodology for VS secretion application as described in Example 5 was utilized. […]

Nc1ccc(O)c(C(=O)O)c1 [5-ASA, 5-aminosalicylic acid]
proliferation, of the NT cells ([1]; 5 mM): 55%
proliferation, of the NT cells ([1]; 10 mM): 54.8±16.5%
cell death rate ([2]; 5 mM): 5.6±3.2%
proliferation, of the NT cells ([3]; 5 mM): 107.8±22.4%
proliferation, of the NT cells ([3]; 10 mM): 109.7±26.7%

Cc1ccc(S(=O)(=O)/C=C/C#N)cc1 [BAY11, BAY11-7082]
proliferation, of the non-treated cells ([1]; 1 μM): 54.7±22.8%
proliferation, of the non-treated cells ([1]; 5 μM): 14%
proliferation, of the non-treated cells ([1]; 5 μM, listed as BAY 11): 14.3±9.7%
effective therapeutic window to target VS cells ([1]; from primary VS and SC culture results combined): around 5 μM
cell death rate ([2]; 1 μM): 36±13%
cell death rate ([2]; 5 μM): 47±12%
normalized proliferation rate ([3]; 1 μM): 165.2±125.1%
normalized proliferation rate ([3]; 5 μM): 133.2±101.1%
normalized proliferation rate, of the NT cells ([3]; 1 mM): 130.2±65.6%
apoptosis / cell death rate ([4]; 1 μM): 1.0±0.7%
apoptosis / cell death rate ([4]; 5 μM): 0.7±0.7%
normalized proliferation rate ([5]; 10 μM): 65.6±24.6%
normalized proliferation rate ([5]; 100 μM): 9.1±4.9%
normalized proliferation rate [5]: 4.3±3.3%
higher concentration needed to reduce proliferation and survival than in primary VS cells ([5]; NF2 VS cell line versus primary VS cells): ~10 fold
cell death rate ([6]; 1 μM): 1.3±0.5%
cell death rate ([6]; 5 μM): 1.9±1.2%
cell death rate ([6]; 10 μM): 1.1±1.1%
cell death rate ([6]; 100 μM): 58.8±21.5%
cell death rate [6]: 55.3±16.9%

Cc1[nH]c(/C=C2\C(=O)Nc3ccc(S(=O)(=O)N(C)c4cccc(Cl)c4)cc32)c(C)c1C(=O)N1CCN(C)CC1 [SU11274]
proliferation, of VS cells treated with DMSO only ([1]; 2 μM, 12 hours then BrdU 20 hours): 22.4±11.7%

FGF2: recombinant human FGF2
number of neurites per 100 μm [7]: 13.7±5.5 per 100 μm
total number of HCs per 100 μm length [7]: 15.0±4.6 per 100 μm
